Here are results for 13 compounds from US12440454B2, “Pharmaceutical compositions containing hemp extract for administration to felines and related methods” (Portland Technology Holdings LLC, priority 2022, dated 2025).

Series [1] in a line: 24 hour pharmacokinetic analysis of serum cannabinoids after oral CBD/CBDA rich hemp paste. The following applies: for detectability in serum of cats at any time point: 24 hour PK; for Css Ave (calculated predicted 5 half-life mean serum concentration): predicted steady state from one compartment model. From the text: (§1) Eight cats from a contract research laboratory (Summit Ridge Farms, Gibson, PA) were utilized for this experiment. 4 spayed female cats and 4 neutered male cats were used. […] The cat population ranged from 4.1 kg to 5.4 kg (mean weight 4.7 kg). An initial dosage of 1 g of paste was fed to each cat at zero hours. Additionally, and after the initial 24-hour pharmacokinetic assessment, treatment with 1 g of paste resumed on the next day for 6 days, twice daily at 7 am and 4 pm each day. […] Cats were fed their normal daily meal approximately 1 hour after oral paste consumption. The base of the paste was a proprietary mix of soy oil, dextrose, dried chicken liver, silica, inulin, polysorbate 60, potassium sorbate, sorbic acid, saccharin, mixed tocopherols, methylparaben, propylparaben in descending order of volume with 15% cannabinoid rich hemp oil emulsified with the product. Prior to enrollment all cats involved in the study were deemed healthy and normal based on physical examination, complete blood count and serum chemistry assessment. During the 1-week trial examination of all cats were assessed at the 1 and 4 hour time point after morning dosing. The assessment included examination for physical abnormalities and examination for adverse events including diarrhea, vomiting, lethargy, somnolence, ataxia, or abnormal behavior within the colony during treatment. Regarding the 24 hour pharmacokinetic study, two milliliters of blood was drawn via jugular venipuncture for all 8 cats prior to the initial dose and then again at 0.5, 1, 2, 4, 8 and 24 hours for a 7 point pharmacokinetic analysis. Complete blood counts, serum chemistry and serum cannabinoid concentrations were performed before the initial treatment and at the end of day 7 treatment, 6 hours after the morning treatment. Complete blood count data included white blood cells (WBC), hematocrit, hemoglobin, red blood cells (RBC), neutrophils, lymphocytes, platelets, monocytes, eosinophils, basophils). Serum biochemistry analyses included sodium, potassium, chloride, magnesium, calcium, phosphorus, albumin, total protein, globulin, urea nitrogen, creatinine, alkaline phosphatase (ALP), alanine aminotransferase (ALT), aspartate amino transferase (AST), cholesterol, total bilirubin, glucose and gamma glutamyl transferase (GGT) with a focus of this report being renal and hepatic parameters. All blood parameters measured were performed at the Cornell University Diagnostic Laboratory.
(§2) Analysis was performed using an exploratory (fit-for-purpose) method for fast measurement of thirteen cannabinoids and their metabolites at the Toxicology Research Laboratory, University of Illinois at Chicago.
Cat serum (40 μL) was mixed with 20 μL of internal standards [100 ng/mL of CBD-d3, THC-d3, THCA-d3, 7-COOH-CBD-d3, 7-OH-CBD-d5, 11-OH-THC-d3, COOH-THC-d9, and COOH-THC-Glu-d3 in water:methanol (50:50)] in a 96 well plate. Proteins were precipitated and compounds were extracted by adding 100 μL of ice-cold acetonitrile to the samples, then vortexing for 1-2 minutes and centrifuging at 4,000 rpm for 10 minutes at 4° C. Supernatants (70 μL) were mixed with 70 μL of water in a different 96 well plate, and centrifuged again. […] The column was equilibrated with mobile phase A (0.1% formic acid in water) and mobile phase B (acetonitrile) at 50% B. The compounds were eluted by a linear gradient from 50% B to […] over 6 minutes, and then held at 95% B for 1 minute. Subsequently, the column was re-equilibrated at initial composition for 1 minute at a flow rate of 0.3 mL/min. The autosampler and column temperature were set a 4 and 30° C., respectively. The compounds were detected in electrospray ionization positive and/or negative mode.

Series [2] in a line: Serum cannabinoid concentrations after one week of twice daily dosing (day 7, 6 hours post morning dose) compared with predicted steady state. The following applies: Student T-test.
Description: as §1, §2
Cat serum (40 μL) was mixed with 20 μL of internal standards [100 ng/mL of CBD-d3, THC-d3, THCA-d3, 7-COOH-CBD-d3, 7-OH-CBD-d5, 11-OH-THC-d3, COOH-THC-d9, and COOH-THC-Glu-d3 in water:methanol (50:50)] in a 96 well plate. Proteins were precipitated and compounds were extracted by adding 100 μL of ice-cold acetonitrile to the samples, then vortexing for 1-2 minutes and centrifuging at 4,000 rpm for 10 minutes at 4° C. Supernatants (70 μL) were mixed with 70 μL of water in a different 96 well plate, and centrifuged again. […] The compounds were detected in electrospray ionization positive and/or negative mode.

Setting [3] is: both, cat, in vivo, po, 1 g of paste.
Where [4] appears, read: both, in vivo, po, 1 g of paste.
Where [5] appears, read: cats, single oral 1 g paste, serum, 0-24 h, mean ± SD.
[6] abbreviates: cats, single oral 1 g paste, serum, mean ± SD.

Regarding `C=C(C)[C@@H]1CCC(C(=O)O)=C[C@H]1c1c(O)cc(CCCCC)cc1O` [7-COOH-CBD, 7-COOH cannabidiol], in series [1] (cats, serum), the “detectability in serum of cats at any time point” value (shortened to “detectability in serum of cats”) is “found in all cats”.

`C=C(C)[C@@H]1CCC(CO)=C[C@H]1c1c(O)cc(CCCCC)cc1O` [7-OH-CBD, 7-OH-cannabidiol]: the “detectability in serum of cats” value in series [1] (cats, serum) is “either below the detectable limit for the analyte or less than half of the population showed any appreciable concentration”. For the same compound, the “cats showing no detectable concentrations of this metabolite” value in series [1] (of the 8 cats, serum) is given as 5.

For `CCCCCc1cc(O)c2c(c1)OC(C)(C)[C@@H]1CCC(CO)=C[C@@H]21` [11-OH-THC, 11-OH-tetrahydrocannabinol], the “detectability in serum of cats” value in series [1] (cats, serum) is “either below the detectable limit for the analyte or less than half of the population showed any appreciable concentration”.

In the case of `CCCCCc1cc(O)c2c(c1)OC(C)(CCC=C(C)C)C=C2` (centres unmarked) [CBC, cannabichromene], the “detectability in serum of cats” value in series [1] (cats, serum) is listed as “either below the detectable limit for the analyte or less than half of the population showed any appreciable concentration”.

Regarding `C=C(C)[C@@H]1CCC(C)=C[C@H]1c1c(O)cc(CCCCC)cc1O` [CBD, cannabidiol, reference compound], the peak level in series [1] (setting [3]) (Cmax) was 282 ng/mL. Moreover, in series [1] (setting [4]), the AUC(0-t) was determined as 908 ± 528 ng·h/mL, the Tmax is 2 h and the half-life was 2.1 ± 1.1 h. Also, the “Css Ave (calculated predicted 5 half-life mean serum concentration)” value in series [1] (cats, mean ± SD) was 102.1 ± 46.3 ng/mL. Also, the “predicted steady state (Css Ave) versus actual serum concentration” value in series [2] is “predicted concentration was higher than the actual concentration”.

The compound `C=C(C)[C@@H]1CCC(C)=C[C@H]1c1c(O)cc(CCCCC)c(C(=O)O)c1O` [CBDA, cannabidiolic acid] had a Cmax in series [1] (setting [3]) of 1010 ng/mL. In series [1] (setting [4]), the AUC(0-t) was 2640 ± 1280 ng·h/mL, the Cmax came out at 1010 ± 495 ng/mL and the Tmax is 1.6 ± 1.1 h. Also, in series [1] (cats, mean ± SD), the “Css Ave (calculated predicted 5 half-life mean serum concentration)” value was 204.5 ± 87.8 ng/mL. For the same compound, in series [2], the “predicted steady state (Css Ave) versus actual serum concentration” value is listed as “predicted concentration was higher than the actual concentration”.

With `CCCCCc1cc(O)c(C/C=C(\C)CCC=C(C)C)c(O)c1` [CBG, cannabigerol], in series [1] (both, in vivo, po), the AUC(0-t) is 11.4 ± 2.8 ng·h/mL, the concentration peaked (Cmax) at 4.35 ± 1 ng/mL, the MRT was 2.3 ± 0.1 h and the Tmax stood at 2 h. The compound also gave a half-life in series [1] (both, in vivo, po) of 0.9 ± 0.1 h.

For the compound `CCCCCc1cc(O)c(C/C=C(\C)CCC=C(C)C)c(O)c1C(=O)O` [CBGA, cannabigerolic acid], in series [1] (setting [4]), the AUC(0-t) turned out to be 34.1 ± 9.5 ng·h/mL, the Cmax worked out at 19.7 ± 5.5 ng/mL, the MRT worked out at 1.5 ± 0.2 h and the Tmax worked out at 1 ± 0.2 h. Further, in series [1] (setting [4]), the half-life is 0.7 ± 0.1 h. Also, the “Css Ave (calculated predicted 5 half-life mean serum concentration)” value in series [1] (cats, mean ± SD) is 4.8 ± 1.3 ng/mL. Besides, the “predicted steady state (Css Ave) versus actual serum concentration” value in series [2] was “predicted concentration was higher than the actual concentration”.

In the case of `CCCCCc1cc(O)c2c(c1)OC(C)(C)c1ccc(C)cc1-2` [CBN, cannabinol], the “detectability in serum of cats” value in series [1] (cats, serum) is “either below the detectable limit for the analyte or less than half of the population showed any appreciable concentration”.

For `CCCCCc1cc(O)c2c(c1)OC(C)(C)[C@@H]1CCC(C(=O)O)=C[C@@H]21` [COOH-THC, COOH-tetrahydrocannabinol], the “detectability in serum of cats” value in series [1] (cats, serum) is recorded as “either below the detectable limit for the analyte or less than half of the population showed any appreciable concentration”.

As to `CCCCCc1cc(O)c2c(c1)OC(C)(C)[C@H]1CCC(C(=O)O[C@@H]3O[C@H](C(=O)O)[C@@H](O)[C@H](O)[C@H]3O)=C[C@H]21` [COOH-THC-glu, COOH-glucuroniated tetrahydrocannabinol], the “detectability in serum of cats” value in series [1] (cats, serum) is given as “either below the detectable limit for the analyte or less than half of the population showed any appreciable concentration”.

As to `CCCCCc1cc(O)c2c(c1)OC(C)(C)[C@@H]1CCC(C)=C[C@@H]21` [THC, Δ9-tetrahydrocannabinol, reference compound], the “Css Ave (calculated predicted 5 half-life mean serum concentration)” value in series [1] (cats, mean ± SD) was 11.9 ± 5.2 ng/mL. The “detectability in serum of cats” value in series [1] (cats, serum) is reported as “either below the detectable limit for the analyte or less than half of the population showed any appreciable concentration”. Moreover, the AUC(0-t) in series [1] (setting [5]) was 156.5 ± 65.8 ng·h/mL. Further, in series [1] (setting [6]), the Cmax turned out to be 40.9 ± 12.9 ng/mL, the mean residence time (MRT) worked out at 3.7 ± 0.4 h, the T1/2 el is 1.6 ± 0.4 h and the time of peak concentration (Tmax) is 2 ± 0 h. Further, the “predicted steady state (Css Ave) versus actual serum concentration” value in series [2] is on record as “predicted concentration was higher than the actual concentration”.

As to `CCCCCc1cc2c(c(O)c1C(=O)O)C1C=C(C)CCC1C(C)(C)O2` (centres unmarked) [THCA, Δ9-tetrahydrocannabinolic acid], the “Css Ave (calculated predicted 5 half-life mean serum concentration)” value in series [1] (cats, mean ± SD) is 43.3 ± 13.9 ng/mL. The same compound registered an AUC(0-t) in series [1] (setting [5]) of 434.0 ± 229.1 ng·h/mL. Further, in series [1] (setting [6]), the Cmax turned out to be 87.9 ± 34.0 ng/mL, the mean residence time MRT is given as 5.5 ± 2.1 h, the T1/2 el was determined as 3.8 ± 1.3 h and the Tmax came to 2 ± 0.9 h. Further, the “predicted steady state (Css Ave) versus actual serum concentration” value in series [2] is “no different”.
